Results from patent US3997598A, “Process for purifying sorbic acid” (Hoechst Aktiengesellschaft, priority 1973, dated 1976).
Converted amounts (≈) assume the structure as drawn. Like-named read-outs stand apart in the source and are kept apart here.

Experiments:
[1] = 30% aqueous dipotassium hydrogen phosphate
[2] = physchem; settings: 30% aqueous dipotassium hydrogen phosphate
[3] = cited from earlier work

- solubility [1]: 15.1 grams per 100 ml of a salt sol
- solubility [2]: 79 mg/mL (≈ 705 mM)
SMILES: C/C=C/C=C/C(=O)O [sorbic acid]
- solubility in water ([3]; 100° C): approximately 3%
- solubility in water ([3]; in words): low solubility
